Laboratory results: ChEMBL document CHEMBL1201862, “PubChem BioAssay data set” (2004)
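Growth conditions: 96-well plates. Treatment: test compound, 48 hours, 5 concentrations. Analysis: linear interpolation between bracketing concentrations; unreached endpoints set to highest concentration. At the GI50, growth is halved.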 Activity calls are given as the source filed them. Cut-off read from the data, not from the text of the source: active = GI50 up to about 1.1 µM and inactive = higher.

Key:
Experiment in all cases: NCI-60 cell line screen, 48 h
LOX IMVI = test system: LOX IMVI
Hs-578T = test system: Hs-578T
MDA-MB-435 = test system: MDA-MB-435
IGROV-1 = test system: IGROV-1
Malme-3M = test system: Malme-3M
OVCAR-5 = test system: OVCAR-5
CCRF-CEM = test system: CCRF-CEM
SK-MEL-5 = test system: SK-MEL-5
T47D = test system: T47D
OVCAR-3 = test system: OVCAR-3
SF-295 = test system: SF-295
DU-145 = test system: DU-145
SN12C = test system: SN12C
NCI-H460 = test system: NCI-H460
CAKI-1 = test system: CAKI-1
UACC-62 = test system: UACC-62
SK-MEL-2 = test system: SK-MEL-2
SNB-19 = test system: SNB-19
MOLT-4 = test system: MOLT-4
SNB-75 = test system: SNB-75
RPMI-8226 = test system: RPMI-8226
RXF 393 = test system: RXF 393
NCI-H226 = test system: NCI-H226
OVCAR-8 = test system: OVCAR-8
OVCAR-4 = test system: OVCAR-4
M14 = test system: M14
HCT-116 = test system: HCT-116
MDA-N = test system: MDA-N
SK-MEL-28 = test system: SK-MEL-28
UACC-257 = test system: UACC-257
SF-268 = test system: SF-268
SW-620 = test system: SW-620
U-251 = test system: U-251
KM12 = test system: KM12
HOP-62 = test system: HOP-62
SK-OV-3 = test system: SK-OV-3
PC-3 = test system: PC-3
A549 = test system: A549
A498 = test system: A498
MCF7 = test system: MCF7
HT-29 = test system: HT-29
HCT-15 = test system: HCT-15
NCI/ADR-RES = test system: NCI/ADR-RES
786-0 = test system: 786-0
TK-10 = test system: TK-10
K562 = test system: K562
UO-31 = test system: UO-31
HL-60 = test system: HL-60
BT-549 = test system: BT-549
SR = test system: SR
COLO 205 = test system: COLO 205
EKVX = test system: EKVX
SF-539 = test system: SF-539
NCI-H522 = test system: NCI-H522
MDA-MB-231 = test system: MDA-MB-231
HCC 2998 = test system: HCC 2998
NCI-H23 = test system: NCI-H23
ACHN = test system: ACHN
HOP-92 = test system: HOP-92

## COc1nc2c(c(=O)n1C)N[C@@H]1[C@@H](O)[C@H](O)CO[C@@H]1N2
LOX IMVI
  GI50: > 100 µM (inactive)
Hs-578T
  GI50: > 100 µM (inactive)
MDA-MB-435
  GI50: > 100 µM (inactive)
IGROV-1
  GI50: > 100 µM (inactive)
Malme-3M
  GI50: 39.4 µM (inactive)
OVCAR-5
  GI50: > 100 µM (inactive)
CCRF-CEM
  GI50: > 100 µM (inactive)
SK-MEL-5
  GI50: > 100 µM (inactive)
T47D
  GI50: > 100 µM (inactive)
OVCAR-3
  GI50: > 100 µM (inactive)
SF-295
  GI50: > 100 µM (inactive)
DU-145
  GI50: > 100 µM (inactive)
SN12C
  GI50: > 100 µM (inactive)
NCI-H460
  GI50: > 100 µM (inactive)
CAKI-1
  GI50: > 100 µM (inactive)
UACC-62
  GI50: > 100 µM (inactive)
SK-MEL-2
  GI50: > 100 µM (inactive)
SNB-19
  GI50: > 100 µM (inactive)
MOLT-4
  GI50: > 100 µM (inactive)
SNB-75
  GI50: > 100 µM (inactive)
RPMI-8226
  GI50: > 100 µM (inactive)
RXF 393
  GI50: > 100 µM (inactive)
NCI-H226
  GI50: > 100 µM (inactive)
OVCAR-8
  GI50: > 100 µM (inactive)
OVCAR-4
  GI50: > 100 µM (inactive)
M14
  GI50: > 100 µM (inactive)
HCT-116
  GI50: > 100 µM (inactive)
MDA-N
  GI50: > 100 µM (inactive)
SK-MEL-28
  GI50: > 100 µM (inactive)
UACC-257
  GI50: > 100 µM (inactive)
SF-268
  GI50: > 100 µM (inactive)
SW-620
  GI50: > 100 µM (inactive)
U-251
  GI50: > 100 µM (inactive)
KM12
  GI50: > 100 µM (inactive)
HOP-62
  GI50: > 100 µM (inactive)
SK-OV-3
  GI50: > 100 µM (inactive)
PC-3
  GI50: > 100 µM (inactive)
A549
  GI50: > 100 µM (inactive)
A498
  GI50: > 100 µM (inactive)
MCF7
  GI50: > 100 µM (inactive)
HT-29
  GI50: > 100 µM (inactive)
HCT-15
  GI50: > 100 µM
NCI/ADR-RES
  GI50: > 100 µM (inactive)
786-0
  GI50: > 100 µM (inactive)
TK-10
  GI50: > 100 µM (inactive)
K562
  GI50: > 100 µM (inactive)
UO-31
  GI50: > 100 µM (inactive)
HL-60
  GI50: > 100 µM (inactive)
BT-549
  GI50: > 100 µM (inactive)
SR
  GI50: > 100 µM (inactive)
COLO 205
  GI50: > 100 µM (inactive)
EKVX
  GI50: > 100 µM (inactive)
SF-539
  GI50: > 100 µM (inactive)
NCI-H522
  GI50: 38.2 µM (inactive)

## O=C1C(Cl)=C(NCCF)C(=O)c2ncccc21
LOX IMVI
  GI50: 0.724 µM (active)
Hs-578T
  GI50: 1.83 µM (inactive)
MDA-MB-435
  GI50: 0.212 µM (active)
IGROV-1
  GI50: 1.95 µM (inactive)
Malme-3M
  GI50: 1.57 µM (inactive)
OVCAR-5
  GI50: 1.88 µM (inactive)
CCRF-CEM
  GI50: 0.235 µM (active)
SK-MEL-5
  GI50: 1 µM (active)
MDA-MB-231
  GI50: 1.9 µM (inactive)
T47D
  GI50: 2.2 µM (inactive)
OVCAR-3
  GI50: 2.03 µM (inactive)
SF-295
  GI50: 1.75 µM (inactive)
HCC 2998
  GI50: 1.36 µM (inactive)
DU-145
  GI50: 1.6 µM (inactive)
SN12C
  GI50: 1.91 µM (inactive)
NCI-H460
  GI50: 1.65 µM (inactive)
UACC-62
  GI50: 0.977 µM (active)
SK-MEL-2
  GI50: 1.68 µM (inactive)
SNB-19
  GI50: 1.64 µM (inactive)
MOLT-4
  GI50: 1.55 µM (inactive)
SNB-75
  GI50: 1.29 µM (inactive)
RPMI-8226
  GI50: 7.08 µM (inactive)
RXF 393
  GI50: 1.84 µM (inactive)
NCI-H226
  GI50: 1.92 µM (inactive)
OVCAR-8
  GI50: 2.03 µM (inactive)
M14
  GI50: 1.61 µM (inactive)
HCT-116
  GI50: 1.76 µM (inactive)
MDA-N
  GI50: 0.2 µM (active)
SK-MEL-28
  GI50: 1.87 µM (inactive)
NCI-H23
  GI50: 1.6 µM (inactive)
UACC-257
  GI50: 1.62 µM (inactive)
SF-268
  GI50: 2.03 µM (inactive)
SW-620
  GI50: 1.36 µM (inactive)
U-251
  GI50: 1.46 µM (inactive)
ACHN
  GI50: 2.19 µM (inactive)
KM12
  GI50: 1.93 µM (inactive)
HOP-62
  GI50: 2.04 µM (inactive)
SK-OV-3
  GI50: 2.29 µM (inactive)
PC-3
  GI50: 1.58 µM (inactive)
A549
  GI50: 1.89 µM (inactive)
A498
  GI50: 4.12 µM (inactive)
MCF7
  GI50: 1.72 µM (inactive)
HT-29
  GI50: 2.97 µM (inactive)
HCT-15
  GI50: 2.08 µM
786-0
  GI50: 1.82 µM (inactive)
TK-10
  GI50: 2.13 µM (inactive)
K562
  GI50: 0.321 µM (active)
UO-31
  GI50: 1.32 µM (inactive)
HL-60
  GI50: 5.11 µM (inactive)
BT-549
  GI50: 1.63 µM (inactive)
SR
  GI50: 9.38 µM (inactive)
EKVX
  GI50: 1.68 µM (inactive)
SF-539
  GI50: 1.81 µM (inactive)

## CCOC(=O)Cn1nnc2ccc(Nc3nc4ccccc4nc3C(=O)OCC)cc21
HOP-92
  GI50: 56.2 µM (inactive)
LOX IMVI
  GI50: > 100 µM (inactive)
Hs-578T
  GI50: 33.5 µM (inactive)
MDA-MB-435
  GI50: > 100 µM (inactive)
IGROV-1
  GI50: > 100 µM (inactive)
Malme-3M
  GI50: > 100 µM (inactive)
OVCAR-5
  GI50: > 100 µM (inactive)
CCRF-CEM
  GI50: > 100 µM (inactive)
SK-MEL-5
  GI50: > 100 µM (inactive)
T47D
  GI50: > 100 µM (inactive)
OVCAR-3
  GI50: > 100 µM (inactive)
SF-295
  GI50: 34.7 µM (inactive)
HCC 2998
  GI50: 87.3 µM (inactive)
DU-145
  GI50: 74.1 µM (inactive)
SN12C
  GI50: > 100 µM (inactive)
NCI-H460
  GI50: > 100 µM (inactive)
CAKI-1
  GI50: > 100 µM (inactive)
UACC-62
  GI50: 65.3 µM (inactive)
SK-MEL-2
  GI50: > 100 µM (inactive)
SNB-19
  GI50: 69.5 µM (inactive)
MOLT-4
  GI50: > 100 µM (inactive)
SNB-75
  GI50: 18.5 µM (inactive)
RPMI-8226
  GI50: > 100 µM (inactive)
RXF 393
  GI50: 37.9 µM (inactive)
NCI-H226
  GI50: > 100 µM (inactive)
OVCAR-8
  GI50: > 100 µM (inactive)
OVCAR-4
  GI50: > 100 µM (inactive)
M14
  GI50: > 100 µM (inactive)
HCT-116
  GI50: > 100 µM (inactive)
MDA-N
  GI50: > 100 µM (inactive)
SK-MEL-28
  GI50: > 100 µM (inactive)
NCI-H23
  GI50: 45.9 µM (inactive)
UACC-257
  GI50: > 100 µM (inactive)
SF-268
  GI50: 27.2 µM (inactive)
SW-620
  GI50: > 100 µM (inactive)
U-251
  GI50: 74 µM (inactive)
ACHN
  GI50: > 100 µM (inactive)
KM12
  GI50: > 100 µM (inactive)
HOP-62
  GI50: 38.3 µM (inactive)
SK-OV-3
  GI50: 59 µM (inactive)
PC-3
  GI50: > 100 µM (inactive)
A549
  GI50: > 100 µM (inactive)
A498
  GI50: > 100 µM (inactive)
MCF7
  GI50: > 100 µM (inactive)
HT-29
  GI50: > 100 µM (inactive)
HCT-15
  GI50: > 100 µM
NCI/ADR-RES
  GI50: > 100 µM (inactive)
786-0
  GI50: 89.3 µM (inactive)
TK-10
  GI50: 45.1 µM (inactive)
K562
  GI50: > 100 µM (inactive)
UO-31
  GI50: 30.1 µM (inactive)
HL-60
  GI50: > 100 µM (inactive)
BT-549
  GI50: 73.8 µM (inactive)
SR
  GI50: > 100 µM (inactive)
COLO 205
  GI50: > 100 µM (inactive)
EKVX
  GI50: > 100 µM (inactive)
SF-539
  GI50: 31.3 µM (inactive)
NCI-H522
  GI50: 39.7 µM (inactive)
